Experimental data reported in ChEMBL document CHEMBL1201862, “PubChem BioAssay data set” (2004).
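Cells were grown in 96-well plates and exposed to each compound for 48 hours at five concentrations; endpoints were interpolated linearly between bracketing concentrations, or set to the highest concentration if not reached. Abbreviation: GI50, concentration required for 50% inhibition of growth.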 Active and inactive are the calls of the source. Rule as the data show it: active = GI50 up to about 1.1 µM and inactive = higher.

Key:
Test in all cases: NCI tumour cell line growth inhibition, 48 h
[1] = test system: HOP-62
[2] = test system: K562
[3] = test system: SK-MEL-5
[4] = test system: SNB-19
[5] = test system: NCI-H226
[6] = test system: NCI/ADR-RES
[7] = test system: RXF 393
[8] = test system: OVCAR-3
[9] = test system: U-251
[10] = test system: M14
[11] = test system: SF-539
[12] = test system: A549
[13] = test system: RPMI-8226
[14] = test system: BT-549
[15] = test system: MCF7
[16] = test system: MOLT-4
[17] = test system: KM12
[18] = test system: EKVX
[19] = test system: SK-OV-3
[20] = test system: HCC 2998

Measured: GI50

COc1ccc(OC)c(-c2cc(C(=O)O)c3cc4ccccc4cc3n2)c1
inactive: [1] > 100 µM | [2] > 100 µM | [3] > 100 µM | [4] > 100 µM | [5] 37.3 µM | [6] > 100 µM | [7] > 100 µM | [8] > 100 µM | [9] > 100 µM | [10] > 100 µM | [11] > 100 µM | [12] > 100 µM | [13] > 100 µM | [14] > 100 µM | [15] > 100 µM | [16] > 100 µM | [17] > 100 µM | [18] > 100 µM | [19] > 100 µM

O=C(O)C1Cc2c([nH]c3ccccc23)C(CCCCO)N1 (stereo unspecified)
inactive: [1] > 100 µM | [2] > 100 µM | [3] > 100 µM | [4] > 100 µM | [5] > 100 µM | [6] > 100 µM | [7] > 100 µM | [8] > 100 µM | [9] > 100 µM | [10] > 100 µM | [11] > 100 µM | [12] > 100 µM | [13] > 100 µM | [14] > 100 µM | [15] > 100 µM | [16] > 100 µM | [17] > 100 µM | [18] > 100 µM | [19] > 100 µM

Oc1cccc(-c2cn3cc(C(F)(F)F)ccc3n2)c1
inactive: [1] 48.8 µM | [2] 30.5 µM | [3] 22.5 µM | [4] 70.1 µM | [5] 46.9 µM | [6] 25.9 µM | [7] 13.8 µM | [8] 19.5 µM | [9] 50.6 µM | [10] 39.3 µM | [20] 22.6 µM | [12] 28.6 µM | [14] 37.2 µM | [15] 15.4 µM | [16] 17.1 µM | [17] 28.6 µM | [18] 17.5 µM | [19] 33.4 µM

COc1ccc2c(c1)CCc1[nH]c3ccccc3c1CCCC2
inactive: [1] > 10 µM | [2] > 10 µM | [3] > 10 µM | [4] > 10 µM | [6] > 10 µM | [8] > 10 µM | [9] > 10 µM | [10] > 10 µM | [11] > 10 µM | [20] > 10 µM | [12] > 10 µM | [13] > 10 µM | [14] > 10 µM | [15] > 10 µM | [16] > 10 µM | [17] > 10 µM | [19] > 10 µM

Cc1ccc2nc(-c3nccn3C)cc(C(=O)NC(C)CN(C)C)c2c1 (stereo unspecified)
inactive: [1] 34.9 µM | [3] 97.9 µM | [4] > 100 µM | [5] 98.6 µM | [6] > 100 µM | [7] > 100 µM | [9] > 100 µM | [10] > 100 µM | [11] 26.1 µM | [20] > 10 µM | [12] 89.9 µM | [14] > 100 µM | [15] 63 µM | [16] > 10 µM | [17] > 100 µM | [18] > 100 µM

Cc1ccc(-c2cc[n+]3c(n2)oc2ccccc23)cc1
inactive: [2] 4.84 µM | [4] 69.8 µM | [6] > 100 µM | [8] 17.7 µM | [9] 36.7 µM | [10] 25.9 µM | [11] 25.1 µM | [20] 30.5 µM | [12] 53.3 µM | [13] 12.5 µM | [14] 28.2 µM | [15] 30.8 µM | [16] 10.8 µM | [17] 47.1 µM | [18] 26.4 µM | [19] 33.6 µM

C=CCOc1ccc(C(=N/NC(=O)c2ccccc2)/N=N/c2ccc([N+](=O)[O-])cc2)cc1OC
inactive: [1] > 100 µM | [3] 76.6 µM | [4] > 100 µM | [5] > 100 µM | [6] > 100 µM | [7] > 100 µM | [8] > 100 µM | [9] > 100 µM | [10] > 100 µM | [11] > 100 µM | [20] 74.1 µM | [12] > 100 µM | [14] > 100 µM | [15] > 100 µM | [16] 92.5 µM | [17] > 100 µM | [18] > 100 µM

O=C(NCP(=O)(O)O)c1cccnc1 [(NICOTINAMIDOMETHYL)PHOSPHONIC ACID]
inactive: [1] > 100 µM | [2] > 100 µM | [3] > 100 µM | [4] > 100 µM | [5] > 100 µM | [6] > 100 µM | [7] > 100 µM | [8] > 100 µM | [9] > 100 µM | [10] > 100 µM | [11] > 100 µM | [12] > 100 µM | [13] > 100 µM | [14] > 100 µM | [15] > 100 µM | [16] > 100 µM | [17] > 100 µM | [18] > 100 µM | [19] > 100 µM
